Test results from patent publication US20210206817A1, “Metabolically Stable Apelin Analogs in the Treatment of Disease Mediated by the Apelin Receptor” (priority 2014, published 2021).
“And” between values parts separate entries of the source, which are not always exact repeats. Identical values can stand only once. Like-named read-outs stand apart in the source and are kept apart here.

Experiments:
[1] = system: rat aortic rings precontracted by noradrenaline (NA); experiment: Isometric tension of aortic rings precontracted by noradrenaline
Protocol: The experiments were performed in rat aortic rings as previously described (39). […] The aortas were cleaned of excess connective tissue and fat and cut into rings of approximately 3-4 mm in length. Special care was taken to avoid damaging the luminal surface of the endothelium. […] One end of the aortic ring was connected to a tissue holder and the other to an isometric force transducer (EMKA Technologies, Paris, France). […] During equilibration period, the rings were washed every 30 min. Then, a first relaxation to acetylcholine (Ach, 10^−4 mol/L) was implemented to check the integrity or the absence of the endothelium in rings precontracted with NA (3×10^−8 mol/L). After rinsing with PSS to baseline tension, rings were equilibrated for 90 min. […] Each concentration of the drug was added at the maximal effect of the precedent concentration. The concentration-response curves were continuously recorded on a PC by means of IOX v 2.4 (EMKA Technologies, Paris) for further analysis (Datanalyst v2.1, EMKA Technologies, Paris).

[2] = system: rat glomerular arterioles precontracted by Angiotensin II (AngII); experiment: Diameter of glomerular arterioles precontracted by angiotensin II; settings: L-NAME, NO synthase inhibitor
Protocol: The left kidney of male rats was prepared for microdissection of arterioles as previously described (44). Glomerular arterioles were isolated under stereomicroscopic observation. The afferent and muscular efferent arterioles were isolated with the glomerulus and identify according their morphology and localization in the inner renal cortex as previously described by Helou et al. […] For these experiments afferent and muscular efferent arterioles were microdissected attached to the gomeruli. […] Arteriolar diameters were measured with Adobe Photoshop CS. Diameters were measured on a distance equal to about 100 μm upstream of the glomerulus and triplicate were performed for each arteriole. Calibration was made using a stage micrometer. The average diameter for each experimental condition was used for statistical analysis.

rat apelin receptor-EGFP [3] = biological target: T1, rat apelin receptor-EGFP (Rattus norvegicus, UniProt Q9JHG3); experiment: Inhibition of forskolin-induced cAMP production (HTRF); assay type: cell-based
T1 construct: expressed in transfected cells
T1 sequence (Q9JHG3 1-377): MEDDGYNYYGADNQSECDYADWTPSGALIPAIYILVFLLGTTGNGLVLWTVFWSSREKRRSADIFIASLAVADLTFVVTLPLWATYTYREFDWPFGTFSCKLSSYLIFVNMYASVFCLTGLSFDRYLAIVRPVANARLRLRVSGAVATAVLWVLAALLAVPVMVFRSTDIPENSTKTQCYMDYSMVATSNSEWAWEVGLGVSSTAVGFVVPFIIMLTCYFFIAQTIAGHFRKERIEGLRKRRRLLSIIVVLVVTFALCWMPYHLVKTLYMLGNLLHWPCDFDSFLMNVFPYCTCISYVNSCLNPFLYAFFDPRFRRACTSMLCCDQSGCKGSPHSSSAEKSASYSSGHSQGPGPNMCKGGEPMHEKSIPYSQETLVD
Protocol: cAMP was quantified using the cAMP dynamic 2 assay kit (Cisbio Bioassays, Codolet, France) based on homogeneous time-resolved fluorescence (HTRF) technology. The stimulation was done in the stimulation buffer (HBSS, 5 mM Hepes, 0.1% BSA stabilizer, 1 mM IBMX, pH 7.4). Briefly, 2,000/well CHO cells stably expressing the rat apelin receptor-EGFP were added into 384-well plate and stimulated with 10^−6 M forskolin (FSK) and increasing concentrations (10^−14 to 10^−4 M) of apelins or its analogs for 30 min at room temperature. Cells were then lyzed, and cAMP levels were determined following manufacturer instructions.

[4] = system: water-deprived or euhydrated mice; settings: i.c.v., Iturrioz 2010; cited from earlier work
rat apelin receptor-EGFP [5] = biological target: T1, rat apelin receptor-EGFP; experiment: ERK1/2 phosphorylation (Alphascreen); assay type: cell-based; settings: Table 7; read-out: ERK1/2 phosphorylation EC50
Description: ERK1/2 phosphorylation was then monitored by Alphascreen technology.

rat apelin receptor-EGFP [6] = biological target: T1, rat apelin receptor-EGFP; experiment: Apelin receptor-EGFP internalization, confocal microscopy; assay type: cell-based; settings: Table 2; read-out: Internalization EC50
Protocol: The internalization assay was performed as described previously with CHO cells stably expressing the rat apelin receptor-EGFP (43). […] Cells were then mounted in Aquapolymount (Polysciences, Warrington, Pa., USA) for confocal microscopic analysis (Sec (42) for details).

[7] = system: isolated perfused rat heart; experiment: Isolated perfused rat heart, cardiac contractility
Protocol: Animals were anesthetized with pentobarbital sodium (50 mg/kg intraperitoneally). Heparin (200 IU/kg) was administrated into the femoral vein. Hearts were excised quickly and arrested in ice-cold Krebs-Henseleit solution containing (mM): […] […] Temperature was continuously monitored by a thermoprobe inserted into the right atrium. Hearts beat spontaneously under the sinus rhythm. […] The maximal rate of rise of left ventricular pressure (dP/dtmax) and heart rate were derived from left ventricular pressure. After 20-minutes equilibration period, the hearts were treated by drugs added to the perfusate with an infusion pump (Harvard Apparatus Pump 11) at rate of 100 μL/min for 30 minutes.

[8] = system: water-deprived or euhydrated mice; experiment: Plasma AVP after i.c.v. injection (RIA); assay type: in vivo, mouse; settings: 1 μg i.c.v.
Protocol: Animals were killed 1 min after the injection, and trunk blood (0.5-1 ml) was collected in chilled tubes containing 50 μl of 0.3 M EDTA pH 7.4. […] RIA kit (Peninsula Laboratories International Inc, San Carlo, USA).

[9] = Half-life in the blood circulation
rat apelin receptor-EGFP [10] = biological target: T1, rat apelin receptor-EGFP; experiment: [125I]pE13F radioligand binding on CHO membrane preparations
Protocol: Crude membrane preparation from CHO stably expressing the wild-type rat apelin receptor-EGFP, were prepared as previously described (39). […] The reaction was stopped by adding ice-cold binding buffer and filtered through glass microfiber filters (Whatman GF/C filters). Radioactivity was counted in Wizard 1470 Wallac gamma counter (Perkin Elmer, Turku, Finland).

[11] = Stability in mouse plasma at 37° C.; settings: mouse, plasma
Protocol: For each compound, the stock solution (100 μM in water) was diluted in plasma to a final incubation concentration of 5 μM. The incubation at 37° C. was stopped respectively at to and 4 h by adding one volume of ice cold acetonitrile containing 0.1% trifluoroacetic acid. The sample was vortexed for 1 min and then centrifuged at 4° C. before LC-MS injection of the supernatant. Analyses were performed on a Kinetex RP-C18 column (2.6 μm, 100 Å, 50×4.6 mm) using a linear gradient (solvent B in solvent A, solvent A: water/0.05% TFA; solvent B: acetonitrile; flow rate of 2 mL·min^−1: detection at 358 nm). The percentage of remaining test compound relative to t0 was measured by monitoring the peak area of the chromatogram.

[12] = system: anaesthesized normotensive Wistar rats; experiment: Arterial blood pressure after i.v. injection; assay type: in vivo, rat
Protocol: The resulting solution was administered to the rats via a catheter inserted into the right femoral vein, and was immediately followed by 0.2 ml Krebs buffer alone to flush the venous catheter. An additional catheter was inserted into the right femoral artery, as previously described (47), for the monitoring of mean arterial blood pressure (MBP) as previously described (48). The arterial catheter was connected to a COBE CDX III pressure transducer (Phymep, Paris, France) linked to the Maclab system (Phymep, Paris, France). HR measurement was triggered by the blood pressure signal. BP was continuously recorded throughout the experiment. […] Mean AUC for each group were then calculated. Unpaired Student's t test was used to determine whether BP observed in response to substances administered […].) has statistically significant difference.

IC50 (rat apelin receptor-EGFP [3]; 10^−6 M forskolin, read-out: IC50 inhibition of forskolin-induced cAMP production): 0.3 ± 0.2 nM | IC50 (rat apelin receptor-EGFP [3]; Table 1, read-out: cAMP production IC50): 0.3 ± 0.1 nM | IC50 (rat apelin receptor-EGFP [3]; Table 3, read-out: IC50 cAMP inhibition): 0.09 ± 0.01 nM | EC50 (rat apelin receptor-EGFP [5]): 4.08 ± 1.17 nM | EC50 (rat apelin receptor-EGFP [6]): 0.26 ± 0.09 nM | half-life [9]: 0.667 min | Ki (rat apelin receptor-EGFP [10]; Table 7, additional experiments vs Table 2, read-out: Binding affinity Ki): 0.06 ± 0.01 nM | Ki (rat apelin receptor-EGFP [10]; [125I]pE13F binding I (nM), Table 2): 0.26 ± 0.12 nM | Ki (rat apelin receptor-EGFP [10]; competition with [125I]pE13F, CHO membranes, read-out: Ki for the apelin receptor (affinity)): 0.3 ± 0.1 nM | half-life at 5 μM [11]: 4.6 min
Compound: CSCC[C@H](NC(=O)[C@@H]1CCCN1C(=O)CNC(=O)[C@H](CCCCN)NC(=O)[C@H](Cc1c[nH]cn1)NC(=O)[C@H](CO)NC(=O)[C@H](CC(C)C)NC(=O)[C@H](CCCNC(=N)N)NC(=O)[C@@H]1CCCN1C(=O)[C@H](CCCNC(=N)N)NC(=O)[C@H](CCC(N)=O)NC(=O)[C@H](CCCNC(=N)N)NC(=O)[C@H](CCCNC(=N)N)NC(=O)[C@H](Cc1ccccc1)NC(=O)[C@@H](N)CCCCN)C(=O)N1CCC[C@H]1C(=O)N[C@@H](Cc1ccccc1)C(=O)O [K17F, reference compound]
vasorelaxing effect at maximal concentration ([1]; 100 μM): 93±3% | maximal relaxant effect ([1]; precontraction 3×10^−6 M NA): 87±8% | potency (pD2) of relaxation ([1]; precontraction 3×10^−6 M NA): 8.30±0.44 | vasorelaxant effect in the presence of L-NAME [2]: blocked | ED50 decrease in plasma AVP [4]: 56 pmol | chronotropic effect [7]: No chronotropic effect | effect on cardiac contractility (developed pressure) ([7]; K17F 0.01 to 300 nM, P92 200 and 400 nM): dose-dependently increased developed pressure | plasma AVP levels ([8]; water-deprived mice 24 h, saline 425±46 pg/ml): 190 ± 27 pg/mL | maximal decrease in AVP release ([8]; water-deprived mice): −94% | (maximal) decrease in mean arterial blood pressure ([12]; 15 nmol/rat i.v.): 7.8 mmHg and 5.4±1 mmHg | time of maximal hypotensive response after injection ([12]; 15 nmol/rat i.v.): 1.2 min | AUC of BP response ([12]; 100 nmol i.v., 15 minutes following injection): −13712±5271 mmHg·s | decrease in MABP ([12]; 100 nmol/rat i.v.): 30.5 mmHg | plateau value after maximal decrease ([12]; 100 nmol/rat i.v.): −12 mmHg | time of return to plateau value ([12]; 100 nmol/rat i.v.): around 22 min | Maximal decrease in BP (mmHg) ([12]; Table 5, 15 nmol i.v.): −7.8 mmHg | Time For maximal BP decrease ([12]; Table 5, 15 nmol i.v.): 1.2 min | Time to return to a plateau value ([12]; Table 5, 15 nmol i.v.): 4.2 min | plateau value reached (in brackets) ([12]; Table 5, 15 nmol i.v.): baseline | ED50 decrease of MABP ([12]; i.v. 5-100 nmol/rat): 30 nmol
